{
  "source": "patent US20190246658A1",
  "about": "“METHODS OF HANDLING PAPAYA” (AGROFRESH INC., priority 2013, published 2019)",
  "key": {"Papayas ‘Golden’ [1]": {"system": "Papayas ‘Golden’", "assay": "Example 1: percentage of fruits with ideal internal pulp firmness (2.5-7.0 lbf)", "format": "in vivo, papaya", "conditions": "100 ppb of MCP, ideal = between 2.5 and 7.0 lbf", "description": "Papayas ‘Golden’ were harvested in Linhares—Espírito Santo—Brazil. The harvested fruits were packed in MAP Bags and put in cardboard boxes.\nThe appropriate weight of papayas was placed in each bag after harvest. Bags were placed in the same cardboard boxes used to export the fruits. Papayas then were cold stored at (11° C.) at the Laboratory.\nThe Test Protocol that was used was as follows. 36 MAP bags were packed. Each bag held approximately 3.8 kg (8.4 lb) of papayas. One such bag was packed in each cardboard box. Total weight of papayas in MAP bags was approximately 137 kg. Approximately 91 kg of papayas were placed into cardboard boxes identical to those used for the MAP bags.\n(§1) The MAP-packaged papayas were packaged as follows: Nine fruits, approximately 3.8 kg were carefully placed into microperforated bags, and the bags were sealed by twisting the open side of the bag, folding down the twisted end, and placing a rubber band around the twisted and folded end of the bag.\nAll papayas were kept at cold temperature (11° C.) during 27 days and after that the fruits (packed in MAP bags or not) were put in room temperature (22° C.) during 8 days.\nOne day after harvest, when the papayas had around 25 lbf of average firmness, each treatment set was marked, placed in a hermetical chamber at cold temperature (11° C.). All chambers were of equal size and packed the same way. Treatment was for 12 hours. In the chambers for the 3 “MCP” treatment groups, at the beginning of the treatment period, SmartFresh™ were placed in the chamber. The amount of SmartFresh™ was chosen to achieve the indicated concentration of 1-methylcyclopropene in the atmosphere of the chamber.\nFor the Pulp Firmness evaluation two measurements where done, one for External Firmness and another for Internal Firmness. For External Firmness, the papayas had the skin removed with a peeler and the pulp firmness was measured with a Firmness Texture Analyzer (FTA) with a probe of 8 mm. For Internal Firmness, the papayas were cut transversally and a measurement close to the center of the fruit was taken with the FTA.\n(§2) The desirable internal pulp firmness for consumption of papayas is between 2.5 and 7.0 lbf. The percentage of fruits with internal pulp firmness between 2.5 and 7.0 lbf was calculated."}, "Papayas ‘Golden’ [2]": {"system": "Papayas ‘Golden’", "assay": "Example 2 (yellow stage): papaya skin color rating", "format": "in vivo", "conditions": "for Skin color ratings: 500 ppb of MCP, scale 1 green to 5 yellow", "description": "(§3) A similar test to Example 1 but papayas are tested during their yellow stage. Papayas ‘Golden’ were harvested in Linhares—Espírito Santo—Brazil. The fruits were packed in MAP Bags and put in cardboard boxes.\n(§4) The fruits were first left at room temperature during 3 days to reach yellow maturity stage.\n(§5) After that the appropriate weight of papayas was placed in each bag after harvest. Bags were placed in the same cardboard boxes used to export the fruits. Papayas then were cold stored at (11° C.) at the Laboratory.\n(§6) The Test Protocol that was used was as follows. 18 MAP bags were packed. Each bag held approximately 3.8 kg (8.4 lb) of papayas. One such bag was packed in each cardboard box. Total weight of papayas in MAP bags was approximately 68 kg. Approximately 68 kg of papayas were placed into cardboard boxes identical to those used for the MAP bags.\nas §1\n(§7) All papayas were kept at cold temperature (11° C.) during 26 days and after that the fruits (packed in MAP bags or not) were put in room temperature (22° C.) during 8 days.\n(§8) After the 3 days for maturation at room temperature, when the papayas had around 5 lbf of average firmness, each treatment set was marked, placed in a hermetical chamber at cold temperature (11° C.). All chambers were of equal size and packed the same way. Treatment was for 12 hr. In the chambers for the 2 “MCP” treatment groups, at the beginning of the treatment period, SmartFresh™ were placed in the chamber. The amount of SmartFresh™ was chosen to achieve the indicated concentration of 1-methylcyclopropene in the atmosphere of the chamber.\nEvaluation for skin color and firmness was as follows. Day “zero” was the day the papayas were removed from the chamber and placed in storage.\nThe Papaya Skin Color was rated with the following scale: 1: green; 2: approximately 25%; 3: approximately 50% colored; 4: approximately 75% colored; 5: yellow."}, "Papayas ‘Golden’ [3]": {"system": "Papayas ‘Golden’", "assay": "Example 2 (yellow stage): percentage of fruits with ideal internal pulp firmness (2.5-7.0 lbf)", "format": "in vivo, papaya", "conditions": "500 ppb of MCP, ideal = between 2.5 and 7.0 lbf", "description": "as §3, §4, §5, §6, §1, §7, §8\nFor the Pulp Firmness evaluation two measurements were done, one for External Firmness and another for Internal Firmness. For External Firmness, the papayas had the skin removed with a peeler and the pulp firmness was measured with a Firmness Texture Analyzer (FTA) with a probe of 8 mm. For Internal Firmness, the papayas were cut transversally and a measurement close to the center of the fruit was taken with the FTA.\nas §2"}, "[4]": {"conditions": "MAP bag, 26 days at 11° C. then 0 days @ 22° C."}, "[5]": {"conditions": "MAP bag, 26 days at 11° C. then 4 days @ 22° C."}, "[6]": {"conditions": "MAP bag, 26 days at 11° C. then 8 days @ 22° C."}, "[7]": {"conditions": "No Bag, 26 days at 11° C. then 0 days @ 22° C."}, "[8]": {"conditions": "No Bag, 26 days at 11° C. then 4 days @ 22° C."}, "[9]": {"conditions": "No Bag, 26 days at 11° C. then 8 days @ 22° C."}},
  "data": [
    {"smiles": "CC1=CC1", "note": "[MCP, 1-methylcyclopropene]", "values": [
      {"measurement": "Percentage of fruits with ideal internal pulp firmness", "setting": "Papayas ‘Golden’ [1]; MAP bag, 27 days at 11° C. then 0 days @ 22° C.", "result": 52.38, "unit": "%"},
      {"measurement": "Percentage of fruits with ideal internal pulp firmness", "setting": "Papayas ‘Golden’ [1]; MAP bag, 27 days at 11° C. then 4 days @ 22° C.", "result": 44.44, "unit": "%"},
      {"measurement": "Percentage of fruits with ideal internal pulp firmness", "setting": "Papayas ‘Golden’ [1]; MAP bag, 27 days at 11° C. then 8 days @ 22° C.", "result": 13.88, "unit": "%"},
      {"measurement": "Percentage of fruits with ideal internal pulp firmness", "setting": "Papayas ‘Golden’ [1]; No Bag, 27 days at 11° C. then 0 days @ 22° C.", "result": 1.19, "unit": "%"},
      {"measurement": "Percentage of fruits with ideal internal pulp firmness", "setting": "Papayas ‘Golden’ [1]; No Bag, 27 days at 11° C. then 4 days @ 22° C.", "result": 11.11, "unit": "%"},
      {"measurement": "Percentage of fruits with ideal internal pulp firmness", "setting": "Papayas ‘Golden’ [1]; No Bag, 27 days at 11° C. then 8 days @ 22° C.", "result": 58.33, "unit": "%"},
      {"measurement": "papayas color, in words", "setting": "Papayas ‘Golden’ [2]; 1-MCP alone (no MAP)", "result": "did not hold the papayas color"},
      {"measurement": "Skin color ratings", "setting": "Papayas ‘Golden’ [2]; [4]", "result": 2.18},
      {"measurement": "Skin color ratings", "setting": "Papayas ‘Golden’ [2]; [5]", "result": 3.62},
      {"measurement": "Skin color ratings", "setting": "Papayas ‘Golden’ [2]; [6]", "result": 4.88},
      {"measurement": "Skin color ratings", "setting": "Papayas ‘Golden’ [2]; [7]", "result": 2.70},
      {"measurement": "Skin color ratings", "setting": "Papayas ‘Golden’ [2]; [8]", "result": 4.91},
      {"measurement": "Skin color ratings", "setting": "Papayas ‘Golden’ [2]; [9]", "result": 5.00},
      {"measurement": "Percentage of fruits with ideal internal pulp firmness", "setting": "Papayas ‘Golden’ [3]; [4]", "result": 77.08, "unit": "%"},
      {"measurement": "Percentage of fruits with ideal internal pulp firmness", "setting": "Papayas ‘Golden’ [3]; [5]", "result": 28.57, "unit": "%"},
      {"measurement": "Percentage of fruits with ideal internal pulp firmness", "setting": "Papayas ‘Golden’ [3]; [6]", "result": 0.00, "unit": "%"},
      {"measurement": "Percentage of fruits with ideal internal pulp firmness", "setting": "Papayas ‘Golden’ [3]; [7]", "result": 60.87, "unit": "%"},
      {"measurement": "Percentage of fruits with ideal internal pulp firmness", "setting": "Papayas ‘Golden’ [3]; [8]", "result": 12.90, "unit": "%"},
      {"measurement": "Percentage of fruits with ideal internal pulp firmness", "setting": "Papayas ‘Golden’ [3]; [9]", "result": 0.00, "unit": "%"}
    ]}
  ]
}
